# Molecular target: T1, human P2X4 (Homo sapiens, UniProt Q99571)
# T1 construct: expressed in transfected cells
# T1 sequence (Q99571 1-388): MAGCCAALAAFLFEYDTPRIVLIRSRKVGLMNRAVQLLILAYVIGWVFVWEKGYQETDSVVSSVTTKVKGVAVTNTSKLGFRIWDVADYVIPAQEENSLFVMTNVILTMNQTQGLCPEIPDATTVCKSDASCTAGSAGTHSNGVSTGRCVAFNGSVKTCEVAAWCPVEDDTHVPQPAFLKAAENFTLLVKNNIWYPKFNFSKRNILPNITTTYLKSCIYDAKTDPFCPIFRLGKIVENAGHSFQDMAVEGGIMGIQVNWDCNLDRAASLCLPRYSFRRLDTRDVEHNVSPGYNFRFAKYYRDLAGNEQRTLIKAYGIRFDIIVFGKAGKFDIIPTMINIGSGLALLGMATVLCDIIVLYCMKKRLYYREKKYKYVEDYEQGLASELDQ
# Experiment: Human P2X4 HEK Cell FLIPR Assay
# Type: cell-based
# Settings: HEK293 stably expressing human P2X4, agonist Bz-ATP 3 μM (EC80); for IC50: read-out: Human P2X4 HEK Cells (FLIPR Assay) avg IC50
# Method: Compounds were tested on a HEK293 cell line stably expressing human P2X4. Cells were cultured on poly-D-lysine-coated 384-well plates at a density of 15,000 cells/well and incubated overnight at 37° C., 5% CO2. P2X4 function was assessed by measuring intracellular calcium fluxes caused by Benzoylbenzoyl-ATP (Bz-ATP) using the calcium-chelating dye Fluo8-AM (Molecular Devices) with the Fluorescent Imaging Plate Reader Tetra (FLIPR^Tetra; Molecular Devices CA). On the day of the assay, the medium was removed and the cells were incubated for 30 min at 37° C. and 5% CO2 in 30 μl of dye buffer (Hank's balanced salt solution, 10 mM HEPES, 1.8 mM CaCl2, 1 mM MgCl2, 2 mM probenecid, 5 mM D-glucose monohydrate, 5 μM Fluo8-AM, pH=7.4). Compounds diluted in probenecid buffer (Hank's balanced salt solution, 10 mM HEPES, 1.8 mM CaCl2, 1 mM MgCl2, 2 mM probenecid, 5 mM D-glucose monohydrate, pH=7.4) at ten concentrations ranging from 25 μM to 1 nM (final concentration) were dispensed and incubated for 30 min at room temperature. […] The final assay volume was 50 μl and final DMSO concentration was 0.5%.
# The fluorescence intensity reflecting intracellular calcium changes was recorded before and after Bz-ATP addition, at an excitation and emission wavelengths of 470-495 nm and 515-575 nm respectively.
# The compounds were tested in triplicates and fluorescence intensity raw data normalized to the agonist control and fitted to the four-parameter logistic equation:
# Y=Bottom+(Top−Bottom)/(1+10^((Log IC50−X)*HillSlope))
# Assay plate acceptance was based on the signal window (S/B)[…] and the reference compound pIC50 within ±3σ the mean of historic pIC50 of the compound. Failure to meet two of the three criteria determined exclusion of the plate's results.
Compound,Human P2X4 HEK Cells (FLIPR Assay) avg Efficacy [%],IC50 [nM]
"CC(=O)N(c1cc(NC(=O)Cc2cccc(F)c2Cl)ccn1)c1cccc(F)c1F [Example 124, N-{4-[2-(2-chloro-3-fluorophenyl)acetamido]pyridin-2-yl}-N-(2,3-difluorophenyl)acetamide]",94,289
"CC(=O)N(c1cccc(Cl)c1)c1cc(NC(=O)Cc2c(Cl)cccc2Cl)ccn1 [Example 134, N-(3-chlorophenyl)-N-{4-[2-(2,6-dichlorophenyl)acetamido]pyridin-2-yl}acetamide]",99,504
"CC(=O)N(c1cc(F)cc(Cl)c1)c1cc(NC(=O)Cc2cccc(F)c2Cl)ccn1 [Example 138, N-(3-chloro-5-fluorophenyl)-N-{4-[2-(2-chloro-3-fluorophenyl)acetamido]pyridin-2-yl}acetamide]",96,316
"CC(=O)N(c1cc(F)cc(Cl)c1)c1cc(NC(=O)Cc2c(Cl)cccc2Cl)ccn1 [Example 139, N-(3-chloro-5-fluorophenyl)-N-{4-[2-(2,6-dichlorophenyl)acetamido]pyridin-2-yl}acetamide]",100,356
"CC(=O)N(c1cc(F)cc(Cl)c1)c1cc(NC(=O)Cc2c(F)cccc2Cl)ccn1 [Example 140, N-(3-chloro-5-fluorophenyl)-N-{4-[2-(2-chloro-6-fluorophenyl)acetamido]pyridin-2-yl)acetamide]",105,271
"CC(=O)N(c1cc(F)cc(C#N)c1)c1cc(NC(=O)Cc2ccccc2Cl)ccn1 [Example 145, N-{4-[2-(2-Chlorphenyl)acetamido]pyridin-2-yl}-N-(3-cyan-5-fluorphenyl)acetamide]",98,234
"CC(=O)N(c1cc(F)cc(C#N)c1)c1cc(NC(=O)Cc2c(Cl)cccc2Cl)ccn1 [Example 146, N-(3-Cyan-5-fluorphenyl)-N-{4-[2-(2,6-dichlorphenyl)acetamido]pyridin-2-yl}acetamide]",103,337
"CC(=O)N(c1cc(F)cc(C#N)c1)c1cc(NC(=O)Cc2ccc(F)cc2Cl)ccn1 [Example 149, N-{4-[2-(2-Chlor-4-fluorphenyl)acetamido]pyridin-2-yl}-N-(3-cyan-5-fluorphenyl)acetamide]",100,450
"CC(=O)N(c1cc(NC(=O)Cc2ccc(F)cc2Cl)ccn1)c1ccc(F)cc1Cl [Example 151, N-(2-Chlor-4-fluorphenyl)-N-{4-[2-(2-chlor-4-fluorphenyl)acetamido]pyridin-2-yl}acetamide]",104,355
"CC(=O)N(c1cc(NC(=O)Cc2cccc(F)c2Cl)ccn1)c1ccc(F)cc1Cl [Example 154, N-(2-Chlor-4-fluorphenyl)-N-{4-[2-(2-chlor-3-fluorphenyl)acetamido]pyridin-2-yl}acetamide]",101,511
"CC(=O)N(c1ccc(S(C)(=O)=O)c(Cl)c1)c1cc(NC(=O)Cc2c(Cl)cccc2Cl)ccn1 [Example 155, N-[3-Chlor-4-(methylsulfonyl)phenyl]-N-{4-[2-(2,6-dichlorphenyl)acetamido]pyridin-2-yl)acetamide]",100,339
"CC(=O)N(c1ccc(S(C)(=O)=O)c(Cl)c1)c1cc(NC(=O)Cc2cccc(F)c2Cl)ccn1 [Example 156, N-{4-[2-(2-Chlor-3-fluorphenyl)acetamido]pyridin-2-yl}-N-[3-chlor-4-(methylsulfonyl)phenyl]acetamide]",96,512
"CC(=O)N(c1ccc(S(C)(=O)=O)c(Cl)c1)c1cc(NC(=O)Cc2ccccc2Cl)ccn1 [Example 157, N-[3-Chlor-4-(methylsulfonyl)phenyl]-N-{4-[2-(2-chlorphenyl)acetamido]pyridin-2-yl}acetamide]",97,644
"COc1cc(F)cc(N(C(C)=O)c2cc(NC(=O)Cc3c(Cl)cccc3Cl)ccn2)c1 [Example 162, N-{4-[2-(2,6-Dichlorphenyl)acetamido]pyridin-2-yl}-N-(3-fluor-5-methoxyphenyl)acetamide]",104,577

# Further molecules by falling IC50, results first:
Human P2X4 HEK Cells (FLIPR Assay) avg Efficacy [%],IC50 [nM],Compound
99,949,"CC(=O)N(c1ccc(S(C)(=O)=O)c(Cl)c1)c1cc(NC(=O)Cc2ccc(F)cc2Cl)ccn1 [Example 159, N-{4-[2-(2-Chlor-4-fluorphenyl)acetamido]pyridin-2-yl}-N-[3-chlor-4-(methylsulfonyl)phenyl]acetamide]"
97,649,"CC(=O)N(c1ccc(S(C)(=O)=O)c(Cl)c1)c1cc(NC(=O)Cc2c(F)cccc2Cl)ccn1 [Example 158, N-{4-[2-(2-Chlor-6-fluorphenyl)acetamido]pyridin-2-yl}-N-[3-chlor-4-(methylsulfonyl)phenyl]acetamide]"
95,577,"CC(=O)N(c1cc(NC(=O)Cc2c(Cl)cccc2Cl)ccn1)c1cccc(F)c1F [Example 125, N-{4-[2-(2,6-dichlorophenyl)acetamido]pyridin-2-yl}-N-(2,3-difluorophenyl)acetamide]"
101,479,"COc1cc(F)cc(N(C(C)=O)c2cc(NC(=O)Cc3ccccc3Cl)ccn2)c1 [Example 161, N-{4-[2-(2-Chlorphenyl)acetamido]pyridin-2-yl}-N-(3-fluor-5-methoxyphenyl)acetamide]"
102,476,"CC(=O)N(c1cc(NC(=O)Cc2c(F)cccc2Cl)ccn1)c1ccc(F)cc1Cl [Example 153, N-(2-Chlor-4-fluorphenyl)-N-{4-[2-(2-chlor-6-fluorphenyl)acetamido]pyridin-2-yl}acetamide]"
104,441,"CC(=O)N(c1cc(NC(=O)Cc2c(Cl)cccc2Cl)ccn1)c1ccc(F)cc1Cl [Example 152, N-(2-Chlor-4-fluorphenyl)-N-{4-[2-(2,6-dichlorphenyl)acetamido]pyridin-2-yl}acetamide]"
96,436,"CC(=O)N(c1cc(F)cc(C#N)c1)c1cc(NC(=O)Cc2c(F)cccc2Cl)ccn1 [Example 148, N-{4-[2-(2-Chlor-6-fluorphenyl)acetamido]pyridin-2-yl}-N-(3-cyan-5-fluorphenyl)acetamide]"
97,384,"CC(=O)N(c1cc(F)cc(C#N)c1)c1cc(NC(=O)Cc2cccc(F)c2Cl)ccn1 [Example 147, N-{4-[2-(2-Chlor-3-fluorphenyl)acetamido]pyridin-2-yl}-N-(3-cyan-5-fluorphenyl)acetamide]"
101,383,"COc1cc(F)cc(N(C(C)=O)c2cc(NC(=O)Cc3cccc(F)c3Cl)ccn2)c1 [Example 160, N-{4-[2-(2-Chlor-3-fluorphenyl)acetamido]pyridin-2-yl}-N-(3-fluor-5-methoxyphenyl)acetamide]"
94,310,"CC(=O)N(c1cc(F)cc(Cl)c1)c1cc(NC(=O)Cc2ccccc2Cl)ccn1 [Example 136, N-(3-chloro-5-fluorophenyl)-N-{4-[2-(2-chlorophenyl)acetamido]pyridin-2-yl}acetamide]"
102,297,"CC(=O)N(c1cc(NC(=O)Cc2ccccc2Cl)ccn1)c1ccc(F)cc1Cl [Example 150, N-(2-Chlor-4-fluorphenyl)-N-{4-[2-(2-chlorphenyl)acetamido]pyridin-2-yl}acetamide]"
104,290,"CC(=O)N(c1cc(F)cc(Cl)c1)c1cc(NC(=O)Cc2ccc(F)cc2Cl)ccn1 [Example 137, N-(3-chloro-5-fluorophenyl)-N-{4-[2-(2-chloro-4-fluorophenyl)acetamido]pyridin-2-yl)acetamide]"

# Reference: US20230257351A1, “SUBSTITUTED N-[…] HAVING P2X4 RECEPTOR ANTAGONISTIC ACTIVITY” (Bayer Aktiengesellschaft, priority 2020, published 2023)
